Where two headings read alike, the source gives them in different places.
Tests used:
progesterone receptor = molecular target: T1, progesterone receptor (Bos taurus, UniProt F1N712); experiment: Inhibition of 3H-progesterone binding to bovine uteral progesterone receptors
T1 construct: from tissue; host or cells: bovine uterus cytosol
T1 sequence (F1N712 1-914): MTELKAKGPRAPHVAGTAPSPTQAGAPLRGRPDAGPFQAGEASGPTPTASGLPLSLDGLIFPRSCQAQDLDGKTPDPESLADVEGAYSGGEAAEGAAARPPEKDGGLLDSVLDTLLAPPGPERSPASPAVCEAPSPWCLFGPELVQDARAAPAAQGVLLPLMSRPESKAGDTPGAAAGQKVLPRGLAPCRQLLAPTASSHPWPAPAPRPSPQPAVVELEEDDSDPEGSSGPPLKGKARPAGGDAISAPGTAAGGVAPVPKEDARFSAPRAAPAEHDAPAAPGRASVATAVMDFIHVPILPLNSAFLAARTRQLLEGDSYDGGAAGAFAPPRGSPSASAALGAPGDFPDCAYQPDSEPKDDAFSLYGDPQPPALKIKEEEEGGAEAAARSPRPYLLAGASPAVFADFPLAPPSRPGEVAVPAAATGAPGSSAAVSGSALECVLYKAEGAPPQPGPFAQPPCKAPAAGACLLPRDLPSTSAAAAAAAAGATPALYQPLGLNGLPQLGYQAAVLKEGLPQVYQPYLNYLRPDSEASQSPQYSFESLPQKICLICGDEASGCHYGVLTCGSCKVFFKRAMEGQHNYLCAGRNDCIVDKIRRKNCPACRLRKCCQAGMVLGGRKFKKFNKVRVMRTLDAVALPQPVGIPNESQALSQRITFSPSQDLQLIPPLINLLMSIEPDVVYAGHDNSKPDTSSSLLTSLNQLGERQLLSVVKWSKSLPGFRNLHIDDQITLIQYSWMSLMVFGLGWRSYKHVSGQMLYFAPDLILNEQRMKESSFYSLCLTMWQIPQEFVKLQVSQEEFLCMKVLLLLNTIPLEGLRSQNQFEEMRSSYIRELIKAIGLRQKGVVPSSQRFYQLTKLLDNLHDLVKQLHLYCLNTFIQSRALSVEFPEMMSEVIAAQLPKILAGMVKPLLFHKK
Outline: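 Bovine uterine cytosol served as the progesterone receptor source. Compounds were scored by their inhibition of ^3H-progesterone binding.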

[1] = test system: number of light/dark transitions (anxiety); experiment: Light/dark transition test; assay type: in vivo, mice (male N.I.H. Swiss-Webster); settings: for effect on number of light/dark transitions (words): 3α-OH-DHP 10, 20, 40 mg/kg, 5α-THDOC 20 mg/kg, diazepam 1.0, 5.0, 10, 20 mg/kg, 20 mg/kg
Description: (§1) The light/dark transition test (Crawley and Goodwin, 1980) is based on the observation that rodents naturally tend to explore novel environments, but open, brightly lit arenas are aversive to the rodents and inhibit exploratory behavior (Christmas and Maxwell, 1970; File, 1980). […] Similar to the light/dark transition test, the open-field test measures the antagonism between the tendency to explore a novel environment and the tendency to remain still in an aversive environment (brightly lit arena). […] The open-field test provides a simple, non-punished assessment of the potential anxiolytic properties of novel compounds. Finally, 3α-OH-DHP was tested for anxiolytic properties in a Vogel conflict paradigm. The ability of BZs to attenuate the suppression of behavior by punishment in conflict paradigms is well established (Gellar et al., 1962; Vogel et al., 1971).
(§2) Male N.I.H. Swiss-Webster mice (Harlan) weighing 15-20 g were used in all experiments. The mice were housed 4/cage in polyethylene cages with sawdust bedding. The colony room was environmentally controlled (22° C.) with a 12 hr. light/dark cycle (0600-1800 hrs.). The mice had free access to food and water. The experiments were run from 0700-1500 hrs. and groups were counterbalanced for time of day effects.
The method used was previously described by Crawley and Goodwin (1980). The apparatus included a large box (26×33×24 cm) connected to a small box (15×22×14 cm) through an opening (5×6 cm). The large box was brightly lit with a standard 100W light bulb, while the small box was kept dark. Following pretreatment with a test drug, mice were placed in the center of the large box and the number of transitions between the large and small boxes was counted for 10 min. […] During the antagonist studies, CGS-8216 was administered 30 min. prior to the test drug.
(§3) 2-Hydroxypropyl β-cyclodextrin Diazepam and chlordiazepoxide are available from Sigma, Co. (St. Louis, Mo.). CGS-8216 was obtained from Ciba-Geigy (Summit, N.J.). All drugs were dissolved in 20% β-cyclodextrin in water and sonicated overnight. All drugs were administered intraperitoneally in a volume of 100 μL/20 g. CGS-8216 was administered subcutaneously in a volume of 100 μL/20 g.
(§4) The vehicle control data were analyzed across test days using an 1-way analysis of variance (ANOVA). […] The dose-response curves were then analyzed using an 1-way ANOVA, followed by Dunnett's t-test for individual comparisons between doses and control. The open-field and habituated locomotor data were analyzed using ANOVA followed by Dunnett's t-test. […] All data is expressed as the mean±S.E.M.

open-field activity = experiment: Open-field activity test; assay type: in vivo, mice (male N.I.H. Swiss-Webster); settings: for total distance, open-field: 20 mg/kg, 10 min, vehicle 2004.6 ± 134.6; for effect on open-field activity: steroids 20 mg/kg, diazepam 10 mg/kg
Description: as §1, §2
As a secondary measure of anxiolytic effects, naive mice were placed in the center of a large, brightly lit plexiglass box (42×42×30.5 cm) and the total distance traveled was measured during a 10 min. test period. […] The Digiscan Activity Monitor (Omnitech Electronics, Columbus, Ohio) includes 16 photobeams that surround the box. The activity monitor is linked to a computer through a Digiscan Analyzer (Omnitech Electronics) and the data is analyzed using the Integrated Lab Animal Monitoring System (Omnitech Electronics). The mice were administered drugs as described for light/dark transitions.
as §3, §4

[2] = molecular target: GABA receptor-chloride ionophore complex (GR complex); experiment: [35S]TBPS binding modulation assay
[3] = read-out: % of inhibition of 3H-progesterone binding, A, competitor 10^-5 M, 0.15 nM 3H-progesterone
[4] = read-out: % of inhibition of 3H-progesterone binding, A, competitor 10^-6 M, 0.15 nM 3H-progesterone
[5] = read-out: % of inhibition of 3H-progesterone binding, B, competitor 10^-5 M, 0.25 nM 3H-progesterone
[6] = read-out: % of inhibition of 3H-progesterone binding, B, competitor 10^-6 M, 0.25 nM 3H-progesterone
[7] = read-out: IC50, inhibition of [35S]-TBPS binding, +5 μM GABA, in the presence of 5 μM GABA

How did the inhibition at 10 µM (progesterone receptor; [3]) turn out when `C[C@]12CC[C@@H](O)C[C@@H]1CC[C@@H]1[C@@H]2CC[C@]2(C)[C@@H](C(=O)CO)CC[C@@H]12` [Example 5α-THDOC, 3α,21-dihydroxy-5α-pregnan-20-one] was run?
Its inhibition at 10 µM is 35%.

What about the inhibition at 1 µM (progesterone receptor; [4]) of the same molecule?
Its inhibition at 1 µM is 13%.

What about the inhibition at 10 µM (progesterone receptor; [5]) of the same molecule?
Its inhibition at 10 µM is 28%.

And the inhibition at 1 µM (progesterone receptor; [6])?
Its inhibition at 1 µM is 5%.

And the “effect on number of light/dark transitions (words)” value [1]?
Its value is “significantly different from vehicle”.

And the “number of transitions in 10 min” value ([1]; 5α-THDOC 10 mg/kg i.p., vehicle 35.2±2.0, p<0.06, FIG. 10)?
Its value is 49.4±2.0 transitions.

And the “effect on number of light/dark transitions at the highest dose” value ([1]; 5α-THDOC 40 mg/kg, p<0.05 vs vehicle)?
The value was “significant decrease”.

And the “total distance, open-field” value (open-field activity)?
The value was 7328.4 ± 769.5 cm.

What about the “effect on open-field activity” value (open-field activity) of the same molecule?
Its value is “significant (p<0.01) increases in activity”.

What about the IC50 [2, 7] of the same molecule?
Its IC50 is 80 nM.

What about the “Max. Inhib., maximal % of specifically bound [35S]-TBPS displaced” value ([2]; saturating concentrations of test compound) of the same molecule?
Its value is 100%.

With `CC(=O)[C@H]1CC[C@H]2[C@@H]3CC[C@H]4C[C@H](O)CC[C@]4(C)[C@H]3CC[C@]12C` [Example 3α-OH-DHP, 3α-hydroxy-5α-pregnan-20-one] as the molecule, how does the inhibition at 10 µM (progesterone receptor; [3]) read?
Its inhibition at 10 µM is 41%.

What about the inhibition at 1 µM (progesterone receptor; [4]) of the same molecule?
Its inhibition at 1 µM is 14%.

What about the inhibition at 10 µM (progesterone receptor; [5]) of the same molecule?
Its inhibition at 10 µM is 40%.

And the inhibition at 1 µM (progesterone receptor; [6])?
Its inhibition at 1 µM is 2%.

And the “number of transitions in 10 min (maximal effect)” value ([1]; 3α-OH-DHP 20 mg/kg i.p., FIG. 9)?
Its value is 70.2±4.3 transitions.

What about the “effect on number of light/dark transitions (words)” value [1] of the same molecule?
Its value is “significant (p<0.01) increase”.

What about the “effect on number of light/dark transitions (words)” value ([1]; listed as α-OH-DHP) of the same molecule?
The value was “number of transitions was increased”.

And the “total distance, open-field” value (open-field activity)?
The value was 5344.9 ± 754.5 cm.

What about the “effect on open-field activity” value (open-field activity) of the same molecule?
Its value is “significant (p<0.01) increases in activity”.

What about the IC50 [2, 7] of the same molecule?
Its IC50 is 38 nM.

And the IC50 ([2]; read-out: IC50, inhibition of [35S]-TBPS binding, No GABA, washed synaptoneurosomes, no GABA added)?
Its IC50 is 230 nM.

Reference: US5232917A, “Methods, compositions, and compounds for allosteric modulation of the GABA receptor by members of the androstane and pregnane series” (priority 1991, dated 1993)
